# Experimental data from patent publication US20240246942A1, “KINASE INHIBITORS FOR THE TREATMENT OF NEURODEGENERATIVE DISEASES” (priority 2020, published 2024).
# How the values were obtained:
# Assay in all cases: biochemical
# [1] = target: T1, panel of 374 wild-type kinases (Homo sapiens, UniProt P07332); details: read-out: % Enzyme Activity (relative to DMSO controls), FES/FPS
# T1 construct: purchased Reaction Biology Corporation
# [2] = target: T2, panel of 374 wild-type kinases (Homo sapiens, UniProt P14616); details: read-out: % Enzyme Activity (relative to DMSO controls), IRR/INSRR
# T2 construct: purchased Reaction Biology Corporation
# [3] = target: T3, panel of 374 wild-type kinases (Homo sapiens, UniProt P36897); details: read-out: % Enzyme Activity (relative to DMSO controls), ALK5/TGFBR1
# T3 construct: purchased Reaction Biology Corporation
# T3 sequence (P36897 34-503): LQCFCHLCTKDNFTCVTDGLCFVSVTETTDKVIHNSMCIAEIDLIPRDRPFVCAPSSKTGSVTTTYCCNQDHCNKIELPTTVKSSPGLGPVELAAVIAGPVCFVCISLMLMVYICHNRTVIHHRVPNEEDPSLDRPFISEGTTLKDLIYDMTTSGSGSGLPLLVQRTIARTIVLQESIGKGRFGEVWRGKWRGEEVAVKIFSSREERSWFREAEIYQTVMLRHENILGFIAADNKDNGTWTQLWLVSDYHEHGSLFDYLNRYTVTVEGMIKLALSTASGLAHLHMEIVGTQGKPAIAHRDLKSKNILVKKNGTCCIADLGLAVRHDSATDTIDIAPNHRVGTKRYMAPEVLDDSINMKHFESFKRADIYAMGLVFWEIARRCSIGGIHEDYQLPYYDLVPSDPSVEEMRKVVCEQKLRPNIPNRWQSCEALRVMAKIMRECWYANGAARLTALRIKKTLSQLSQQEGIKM
# [4] = target: T4, panel of 374 wild-type kinases (Homo sapiens, UniProt P49761); details: read-out: % Enzyme Activity (relative to DMSO controls), CLK3
# T4 construct: purchased Reaction Biology Corporation
# [5] = target: T5, panel of 374 wild-type kinases (Homo sapiens, UniProt Q8N568); details: read-out: % Enzyme Activity (relative to DMSO controls), DCAMKL2
# T5 construct: purchased Reaction Biology Corporation
# T5 sequence (Q8N568 1-766): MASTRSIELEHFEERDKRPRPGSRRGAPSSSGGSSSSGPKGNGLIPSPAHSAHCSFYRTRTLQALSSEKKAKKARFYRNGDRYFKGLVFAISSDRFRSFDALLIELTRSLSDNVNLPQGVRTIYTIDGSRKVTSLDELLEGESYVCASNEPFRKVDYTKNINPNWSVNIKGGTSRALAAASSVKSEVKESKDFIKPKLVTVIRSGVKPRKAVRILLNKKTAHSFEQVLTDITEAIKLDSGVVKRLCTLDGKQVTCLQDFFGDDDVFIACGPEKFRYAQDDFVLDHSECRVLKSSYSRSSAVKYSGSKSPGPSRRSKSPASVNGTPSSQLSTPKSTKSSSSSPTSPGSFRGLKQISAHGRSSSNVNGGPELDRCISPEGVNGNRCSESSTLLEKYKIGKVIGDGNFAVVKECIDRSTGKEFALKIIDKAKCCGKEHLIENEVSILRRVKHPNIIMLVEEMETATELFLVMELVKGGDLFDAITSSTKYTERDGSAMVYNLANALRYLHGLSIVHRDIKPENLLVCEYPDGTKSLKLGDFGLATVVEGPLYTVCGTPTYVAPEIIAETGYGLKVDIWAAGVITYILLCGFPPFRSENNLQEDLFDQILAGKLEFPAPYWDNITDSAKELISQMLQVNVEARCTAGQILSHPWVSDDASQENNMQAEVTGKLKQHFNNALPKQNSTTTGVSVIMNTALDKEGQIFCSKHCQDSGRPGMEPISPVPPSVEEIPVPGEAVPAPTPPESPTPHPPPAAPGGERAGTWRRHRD
# [6] = target: T6, panel of 374 wild-type kinases (Homo sapiens, UniProt Q92630); details: read-out: % Enzyme Activity (relative to DMSO controls), DYRK2
# T6 construct: purchased Reaction Biology Corporation
# T6 sequence (Q92630 1-601): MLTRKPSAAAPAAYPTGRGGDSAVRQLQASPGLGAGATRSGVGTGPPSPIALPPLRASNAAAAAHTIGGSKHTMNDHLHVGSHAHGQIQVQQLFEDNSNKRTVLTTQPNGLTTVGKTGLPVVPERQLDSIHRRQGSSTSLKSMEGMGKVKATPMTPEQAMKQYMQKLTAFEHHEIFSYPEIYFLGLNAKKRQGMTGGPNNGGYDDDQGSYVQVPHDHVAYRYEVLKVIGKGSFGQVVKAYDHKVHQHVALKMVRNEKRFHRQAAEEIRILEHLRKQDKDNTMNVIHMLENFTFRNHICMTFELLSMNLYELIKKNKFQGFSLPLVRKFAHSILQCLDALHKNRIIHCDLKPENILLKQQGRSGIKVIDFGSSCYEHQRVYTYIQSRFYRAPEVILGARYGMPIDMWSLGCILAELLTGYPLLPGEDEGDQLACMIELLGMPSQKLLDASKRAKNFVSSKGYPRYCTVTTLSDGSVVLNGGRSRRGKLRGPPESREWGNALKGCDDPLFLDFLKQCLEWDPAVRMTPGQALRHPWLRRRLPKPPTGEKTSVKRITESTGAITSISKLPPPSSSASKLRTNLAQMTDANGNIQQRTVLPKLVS
# [7] = target: T7, panel of 374 wild-type kinases (Homo sapiens, UniProt Q9UM73); details: read-out: % Enzyme Activity (relative to DMSO controls), ALK
# T7 construct: purchased Reaction Biology Corporation
# [8] = target: T8, panel of 374 wild-type kinases (Homo sapiens, UniProt Q9Y243); details: read-out: % Enzyme Activity (relative to DMSO controls), AKT3
# T8 construct: purchased Reaction Biology Corporation
# [9] = target: T9, panel of 374 wild-type kinases (Homo sapiens, UniProt Q9Y2H1); details: read-out: % Enzyme Activity (relative to DMSO controls), kinase STK38L/NDR2
# T9 construct: purchased Reaction Biology Corporation
# T9 sequence (Q9Y2H1 whole entry): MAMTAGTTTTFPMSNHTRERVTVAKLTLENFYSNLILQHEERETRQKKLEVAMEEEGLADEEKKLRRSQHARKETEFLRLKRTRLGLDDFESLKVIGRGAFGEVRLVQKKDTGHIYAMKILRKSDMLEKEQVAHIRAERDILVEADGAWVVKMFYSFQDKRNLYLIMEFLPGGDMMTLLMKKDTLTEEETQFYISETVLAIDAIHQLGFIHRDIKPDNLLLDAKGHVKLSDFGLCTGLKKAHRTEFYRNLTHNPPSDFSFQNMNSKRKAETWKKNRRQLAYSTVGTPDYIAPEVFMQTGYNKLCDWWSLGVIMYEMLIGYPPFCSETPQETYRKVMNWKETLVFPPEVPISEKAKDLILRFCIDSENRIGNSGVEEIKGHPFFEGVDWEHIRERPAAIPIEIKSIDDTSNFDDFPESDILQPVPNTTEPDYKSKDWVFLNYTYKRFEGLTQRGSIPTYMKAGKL
# T7 sequence (Q9UM73 19-1620): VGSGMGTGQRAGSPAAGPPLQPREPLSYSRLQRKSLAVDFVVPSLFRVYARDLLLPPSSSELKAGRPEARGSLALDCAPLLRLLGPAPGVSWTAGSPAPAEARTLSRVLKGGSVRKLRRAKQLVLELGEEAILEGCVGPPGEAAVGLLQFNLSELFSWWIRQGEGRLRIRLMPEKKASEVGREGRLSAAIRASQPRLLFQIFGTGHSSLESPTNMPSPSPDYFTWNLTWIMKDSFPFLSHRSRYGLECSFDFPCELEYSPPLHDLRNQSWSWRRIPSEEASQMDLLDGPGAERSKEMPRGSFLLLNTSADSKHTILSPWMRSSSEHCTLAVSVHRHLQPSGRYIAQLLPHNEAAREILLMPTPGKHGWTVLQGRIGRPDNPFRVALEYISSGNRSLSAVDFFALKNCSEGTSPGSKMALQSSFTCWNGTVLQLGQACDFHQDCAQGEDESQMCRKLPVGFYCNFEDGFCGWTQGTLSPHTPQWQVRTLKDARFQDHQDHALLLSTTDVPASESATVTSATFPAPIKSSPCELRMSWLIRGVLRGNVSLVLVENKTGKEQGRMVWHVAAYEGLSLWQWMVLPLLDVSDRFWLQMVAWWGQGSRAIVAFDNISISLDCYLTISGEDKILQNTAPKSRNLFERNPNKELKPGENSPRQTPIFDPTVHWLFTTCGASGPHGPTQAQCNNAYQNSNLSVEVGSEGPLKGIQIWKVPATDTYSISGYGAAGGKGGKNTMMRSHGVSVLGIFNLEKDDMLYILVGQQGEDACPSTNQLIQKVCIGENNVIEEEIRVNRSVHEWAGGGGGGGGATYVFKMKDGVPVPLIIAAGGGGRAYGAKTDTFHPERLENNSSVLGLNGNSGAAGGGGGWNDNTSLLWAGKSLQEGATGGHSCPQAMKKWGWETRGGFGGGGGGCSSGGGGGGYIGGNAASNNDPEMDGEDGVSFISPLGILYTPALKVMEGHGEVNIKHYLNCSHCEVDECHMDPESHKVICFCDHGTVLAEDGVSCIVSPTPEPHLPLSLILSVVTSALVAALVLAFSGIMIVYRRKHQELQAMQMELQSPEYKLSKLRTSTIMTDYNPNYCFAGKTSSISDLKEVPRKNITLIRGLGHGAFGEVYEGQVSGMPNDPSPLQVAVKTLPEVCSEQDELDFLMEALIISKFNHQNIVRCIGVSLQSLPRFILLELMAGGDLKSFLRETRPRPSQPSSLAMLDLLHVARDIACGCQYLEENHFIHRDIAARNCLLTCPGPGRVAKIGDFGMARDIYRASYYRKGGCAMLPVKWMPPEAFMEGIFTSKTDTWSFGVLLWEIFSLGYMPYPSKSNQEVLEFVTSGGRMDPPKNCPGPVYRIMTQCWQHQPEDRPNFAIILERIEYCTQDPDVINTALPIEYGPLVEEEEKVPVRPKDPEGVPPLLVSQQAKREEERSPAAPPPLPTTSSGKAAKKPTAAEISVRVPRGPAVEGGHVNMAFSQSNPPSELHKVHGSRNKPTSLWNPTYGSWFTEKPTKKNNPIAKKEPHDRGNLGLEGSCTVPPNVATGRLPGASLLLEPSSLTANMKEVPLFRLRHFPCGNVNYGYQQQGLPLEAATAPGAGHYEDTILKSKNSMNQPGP
# T4 sequence (P49761 whole entry): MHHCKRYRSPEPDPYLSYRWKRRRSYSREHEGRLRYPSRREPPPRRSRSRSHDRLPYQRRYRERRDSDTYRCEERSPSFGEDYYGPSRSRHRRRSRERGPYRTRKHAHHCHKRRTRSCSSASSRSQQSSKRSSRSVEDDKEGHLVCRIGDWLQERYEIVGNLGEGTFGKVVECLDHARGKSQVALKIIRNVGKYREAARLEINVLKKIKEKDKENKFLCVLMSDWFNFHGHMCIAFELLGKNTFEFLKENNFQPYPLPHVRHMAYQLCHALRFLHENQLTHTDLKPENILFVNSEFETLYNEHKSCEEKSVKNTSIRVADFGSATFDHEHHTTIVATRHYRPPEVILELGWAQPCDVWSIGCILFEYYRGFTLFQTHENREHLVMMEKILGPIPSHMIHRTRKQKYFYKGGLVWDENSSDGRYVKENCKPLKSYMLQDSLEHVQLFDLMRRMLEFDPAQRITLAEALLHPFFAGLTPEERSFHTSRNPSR
# T8 sequence (Q9Y243 whole entry): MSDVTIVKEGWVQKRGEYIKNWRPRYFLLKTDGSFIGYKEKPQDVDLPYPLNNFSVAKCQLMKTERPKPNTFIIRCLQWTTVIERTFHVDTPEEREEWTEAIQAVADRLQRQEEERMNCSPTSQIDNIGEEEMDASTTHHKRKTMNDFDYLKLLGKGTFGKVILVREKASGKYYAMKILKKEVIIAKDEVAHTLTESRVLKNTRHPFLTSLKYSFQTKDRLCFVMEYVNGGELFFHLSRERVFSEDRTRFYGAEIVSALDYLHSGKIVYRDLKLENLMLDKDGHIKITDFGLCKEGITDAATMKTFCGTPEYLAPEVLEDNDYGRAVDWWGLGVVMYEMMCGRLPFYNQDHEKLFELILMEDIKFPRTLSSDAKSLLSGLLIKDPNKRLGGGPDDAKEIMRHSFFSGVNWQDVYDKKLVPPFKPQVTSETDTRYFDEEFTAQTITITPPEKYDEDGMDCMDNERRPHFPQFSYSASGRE
# T2 sequence (P14616 27-1297): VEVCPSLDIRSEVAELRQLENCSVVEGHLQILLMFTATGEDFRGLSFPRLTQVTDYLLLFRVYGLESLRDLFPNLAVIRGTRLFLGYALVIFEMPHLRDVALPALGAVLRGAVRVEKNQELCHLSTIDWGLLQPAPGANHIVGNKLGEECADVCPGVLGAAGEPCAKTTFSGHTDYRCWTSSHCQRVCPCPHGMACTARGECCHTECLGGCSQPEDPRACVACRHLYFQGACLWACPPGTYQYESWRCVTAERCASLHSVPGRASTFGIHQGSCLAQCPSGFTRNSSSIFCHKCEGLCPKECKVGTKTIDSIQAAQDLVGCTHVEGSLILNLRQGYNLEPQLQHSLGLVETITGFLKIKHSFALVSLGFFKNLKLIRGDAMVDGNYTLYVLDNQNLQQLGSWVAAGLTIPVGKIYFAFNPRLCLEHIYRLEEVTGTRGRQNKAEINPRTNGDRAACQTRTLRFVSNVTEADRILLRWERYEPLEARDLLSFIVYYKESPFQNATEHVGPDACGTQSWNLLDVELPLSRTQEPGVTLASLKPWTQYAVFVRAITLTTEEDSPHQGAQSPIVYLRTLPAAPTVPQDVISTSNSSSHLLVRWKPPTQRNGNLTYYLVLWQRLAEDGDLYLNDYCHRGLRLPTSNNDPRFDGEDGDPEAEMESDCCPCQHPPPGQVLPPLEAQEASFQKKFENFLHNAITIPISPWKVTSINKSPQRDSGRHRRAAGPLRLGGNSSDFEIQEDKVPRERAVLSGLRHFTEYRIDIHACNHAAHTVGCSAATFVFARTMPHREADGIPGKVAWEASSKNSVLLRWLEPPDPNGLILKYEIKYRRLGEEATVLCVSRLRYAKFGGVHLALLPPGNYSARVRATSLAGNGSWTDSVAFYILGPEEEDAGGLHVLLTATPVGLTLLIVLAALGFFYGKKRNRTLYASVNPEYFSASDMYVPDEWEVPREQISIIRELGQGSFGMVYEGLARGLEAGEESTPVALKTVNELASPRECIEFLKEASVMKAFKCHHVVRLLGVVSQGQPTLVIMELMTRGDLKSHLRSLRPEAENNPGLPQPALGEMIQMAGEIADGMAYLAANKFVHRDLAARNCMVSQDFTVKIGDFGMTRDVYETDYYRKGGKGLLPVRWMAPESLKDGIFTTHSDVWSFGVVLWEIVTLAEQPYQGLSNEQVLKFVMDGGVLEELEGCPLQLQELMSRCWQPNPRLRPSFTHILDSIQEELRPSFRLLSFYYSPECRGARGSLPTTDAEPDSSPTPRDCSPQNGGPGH
SMILES,remaining activity at 5 µM [1] [%],remaining activity at 5 µM [2] [%],remaining activity at 5 µM [3] [%],remaining activity at 5 µM [4] [%],remaining activity at 5 µM [5] [%],remaining activity at 5 µM [6] [%],remaining activity at 5 µM [7] [%],remaining activity at 5 µM [8] [%],remaining activity at 5 µM [9] [%],remaining activity at 10 µM ([1]; 10 uM) [%],remaining activity at 10 µM ([2]; 10 uM) [%],remaining activity at 10 µM ([3]; 10 uM) [%],remaining activity at 10 µM ([4]; 10 uM) [%],remaining activity at 10 µM ([5]; 10 uM) [%],remaining activity at 10 µM ([6]; 10 uM) [%],remaining activity at 10 µM ([7]; 10 uM) [%],remaining activity at 10 µM ([8]; 10 uM) [%],remaining activity at 10 µM ([9]; 10 uM) [%]
"O=C(Nc1cnn(-c2csc(C(=O)NC3COC3)c2)c1)Nc1ccccc1Cl [Compound 17, 4-(4-(3-(2-chlorophenyl)ureido)-1H-pyrazol-1-yl)-N-(oxetan-3-yl)thiophene-2-carboxamide]",99.3,96,103,120,99.9,88.2,101,87.3,103,–,–,–,–,–,–,–,–,–
"O=C(Nc1cnn(-c2csc(C(=O)NC3COC3)c2)c1)Nc1c(F)cccc1Cl [Compound 25, 4-(4-(3-(2-chloro-6-fluorophenyl)ureido)-1H-pyrazol-1-yl)-N-(oxetan-3-yl)thiophene-2-carboxamide]",87.8,75.9,97.4,93.5,94.3,93.6,89.2,97.6,94.8,–,–,–,–,–,–,–,–,–
"Cc1sc(C(=O)NC2COC2)cc1-n1cc(NC(=O)Nc2c(F)cccc2Cl)cn1 [Compound 27, 4-(4-(3-(2-chloro-6-fluorophenyl)ureido)-1H-pyrazol-1-yl)-5-methyl-N-(oxetan-3-yl)thiophene-2-carboxamide]",–,–,–,–,–,–,–,–,–,93.7,71.9,104,99.6,107,96.3,100,94.8,95.1
